Details: method of Shin Jikken Kagaku Koza, Kihon Sosa 1

C=Cc1ccccc1 [styrene]
solubility in water at 25°C: 0.03 % by weight

C=C(C)C(=O)OCCCC [butyl methacrylate]
solubility in water at 25°C: 0.03 % by weight
